Patent US4791139A, “Diphenyl ether derivatives and their use as insecticides” (Imperial Chemical Industries PLC, priority 1986, dated 1988)

Columns and labels:
Type in all cases: in vivo
[1] = test system: Heliothis virescens (tobacco budworm - larvae); assay: Residual test, tobacco budworm - larvae (HV), Cotton leaf; details: 72 h, read-out: HV grading of mortality
Procedure: (§1) The activity of the Product was determined using a variety of insect pests. The Product was used in the form of liquid preparations containing from 100 to 500 parts per million (ppm) by weight of the Product. The preparations were made by dissolving the Product in acetone and diluting the solutions with water containing 0.1% by weight of a wetting agent sold under the trade name "SYNPERONIC" NX until the liquid preparations contained the required concentration of the Product. "SYNPERONIC" is a Registered Trade Mark.
(§2) The test procedure adopted with regard to each pest was basically the same and comprised supporting a number of the pests on a medium which was usually a host plant or a foodstuff on which the pests feed, and treating either or both the pests and the medium with the preparations. The mortality of the pests was then assessed at periods usually varying from one to seven days after the treatment.
(§3) The results of the tests are given in Table III for each of the Products, at the rate in parts per million given in the second column as a grading of mortality designated as A, B or C wherein A indicates 80-100% mortality or knockdown (70-100% for Meloidogyne incognita), B indicates 50-79% mortality knockdown or knockdown (50-69% for Meloidogyne incognita) and C indicates less than 50% mortality or knockdown.
(§4) In Table III the pest organism used is designated by a letter code and the pests species, the support medium or food, and the type and duration of test is given in Table II.
(tobacco budworm - larvae)

[2] = test system: Musca domestica (houseflies - adults); assay: Contact test, houseflies - adults (MD), Cotton wool/sugar; details: 24 h, 500 ppm, 1 day, read-out: MD grading of mortality
Procedure: as §1, with “Mark. The test procedure adopted with regard to each pest was basically the same and comprised supporting a number of the pests on a medium which was usually a host plant or a foodstuff on which the pests feed, and treating either or both the pests and the medium with the preparations. The mortality of the pests was then assessed at periods usually varying from one to seven days after the treatment.” for “Mark.”

[3] = test system: Nilaparvata lugens (brown plant hopper - nymphs); assay: Contact test, brown plant hopper - nymphs (NL), Rice plant; details: 72 h, 500 ppm, 3 days, read-out: NL grading of mortality
Procedure: as §1, with “Mark. The test procedure adopted with regard to each pest was basically the same and comprised supporting a number of the pests on a medium which was usually a host plant or a foodstuff on which the pests feed, and treating either or both the pests and the medium with the preparations. The mortality of the pests was then assessed at periods usually varying from one to seven days after the treatment.” for “Mark.”

[4] = test system: Tetranychus urticae (spider mites - adult); assay: Contact test, spider mites - adult (TUa), French bean leaf; details: 72 h, 500 ppm, 3 days, read-out: TUA grading of mortality
Procedure: as §1, with “Mark. The test procedure adopted with regard to each pest was basically the same and comprised supporting a number of the pests on a medium which was usually a host plant or a foodstuff on which the pests feed, and treating either or both the pests and the medium with the preparations. The mortality of the pests was then assessed at periods usually varying from one to seven days after the treatment.” for “Mark.”

Myzus persicae (aphids) = assay: Contact test, aphids (MP), Chinese Cabbage leaf; details: 72 h, 500 ppm, 3 days, read-out: MP grading of mortality
Procedure: The activity of the Product was determined using a variety of insect pests. The Product was used in the form of liquid preparations containing from 100 to 500 parts per million (ppm) by weight of the Product. The preparations were made by dissolving the Product in acetone and diluting the solutions with water containing 0.1% by weight of a wetting agent sold under the trade name "SYNPERONIC" NX until the liquid preparations contained the required concentration of the Product. "SYNPERONIC" is a Registered Trade Mark. The test procedure adopted with regard to each pest was basically the same and comprised supporting a number of the pests on a medium which was usually a host plant or a foodstuff on which the pests feed, and treating either or both the pests and the medium with the preparations. The mortality of the pests was then assessed at periods usually varying from one to seven days after the treatment. […] In Table III the pest organism used is designated by a letter code and the pests species, the support medium or food, and the type and duration of test is given in Table II.

[5] = test system: Diabrotica balteata (rootworm larvae); assay: Residual test, rootworm larvae (DB), Filter paper/maize seed; details: 72 h, 500 ppm, 3 days, read-out: DB grading of mortality
Procedure: (§5) The activity of the Product was determined using a variety of insect pests. The Product was used in the form of liquid preparations containing from 100 to 500 parts per million (ppm) by weight of the Product. The preparations were made by dissolving the Product in acetone and diluting the solutions with water containing 0.1% by weight of a wetting agent sold under the trade name "SYNPERONIC" NX until the liquid preparations contained the required concentration of the Product. "SYNPERONIC" is a Registered Trade Mark. The test procedure adopted with regard to each pest was basically the same and comprised supporting a number of the pests on a medium which was usually a host plant or a foodstuff on which the pests feed, and treating either or both the pests and the medium with the preparations. The mortality of the pests was then assessed at periods usually varying from one to seven days after the treatment.

[6] = test system: Tetranychus urticae (spider mites - ova); assay: Contact test, spider mites - ova (TUe), French bean leaf; details: 144 h, 500 ppm, 6 days, read-out: TUE grading of mortality
Procedure: as §5

[7] = test system: Meloidogyne incognita (Tomato root knot eelworm - larvae); assay: Residual test, Tomato root knot eelworm - larvae (MI), Semi in-vitro; details: 168 h, rate column 500 ppm, application rate is half that recorded, 7 days, read-out: MI grading of mortality
[8] = test system: Spodoptera exigua (lesser army worm - larvae); assay: Residual test, lesser army worm - larvae (SP), Cotton leaf; details: 72 h, 500 ppm, 3 days, read-out: SP grading of mortality
Procedure: as §1, §2, §3, §4
(lesser army worm - larvae)

[9] = test system: Blattella germanica (cockroach nymphs); assay: Residual test, cockroach nymphs (BG), Plastic pot; details: 72 h, 500 ppm, 3 days, read-out: BG grading of mortality
Procedure: as §5

[10] = test system: Musca domestica (houseflies - adults); assay: Knockdown test, houseflies - adults (MD/KD), Cotton wool/sugar; details: 500 ppm, 4 hours, read-out: MD/KD grading of knockdown
Procedure: as §1, §2
In the case of the species Musca domestica (housefly), an additional assessment to determine the knockdown effect of the compounds was performed.
as §4

Fc1ccc(CCCC(c2ccc(OC(F)(F)F)cc2)C(F)F)cc1Oc1ccccc1 (racemic) [Compound 27, 1,1-Difluoro-2-(4-trifluoromethoxyphenyl)-5-(4-fluoro-3-phenoxyphenyl)pentane]
80 to 100%: mortality at 500 ppm [1] | mortality at 500 ppm [2] | mortality at 500 ppm [3] | mortality at 500 ppm [4] | mortality at 500 ppm (Myzus persicae (aphids)) | mortality at 500 ppm [5] | mortality at 500 ppm [8] | mortality at 500 ppm [9] | pest or weed control at 500 ppm [10]
< 50%: mortality at 500 ppm [6] | mortality at 250 µg/mL [7]

CCOc1ccc(C(CCCc2c(F)c(F)c(F)c(F)c2F)C(F)(F)F)cc1 (racemic) [Compound 43, 1,1,1-Trifluoro-2-(4-ethoxyphenyl)-5-(pentafluorophenyl)pentane]
< 50%: mortality at 500 ppm [1] | mortality at 500 ppm [3] | mortality at 500 ppm [4] | mortality at 500 ppm (Myzus persicae (aphids)) | mortality at 500 ppm [6] | mortality at 250 µg/mL [7]
50 to 79%: mortality at 500 ppm [2] | mortality at 500 ppm [9] | pest or weed control at 500 ppm [10]
80 to 100%: mortality at 500 ppm [5] | mortality at 500 ppm [8]

COCc1ccc(C(CCCc2cccc(Oc3ccccc3)c2)C(F)(F)F)cc1 (racemic) [Compound 45, 1,1,1-Trifluoro-2-(4-methoxymethylphenyl)-5-(3-phenoxyphenyl)pentane]
< 50%: mortality at 500 ppm [4] | mortality at 500 ppm (Myzus persicae (aphids)) | mortality at 500 ppm [6] | mortality at 250 µg/mL [7] | mortality at 500 ppm [9]
80 to 100%: mortality at 500 ppm [1] | mortality at 500 ppm [2] | mortality at 500 ppm [3] | mortality at 500 ppm [5] | mortality at 500 ppm [8] | pest or weed control at 500 ppm [10]

COc1ccc(C(CCCc2cccc(Oc3ccccc3)c2)C(F)(F)F)cc1 (racemic) [Compound 49, 1,1,1-Trifluoro-2-(4-methoxyphenyl)-5-(3-phenoxyphenyl)pentane]
80 to 100%: mortality at 500 ppm [1] | mortality at 500 ppm [2] | mortality at 500 ppm [3] | mortality at 500 ppm (Myzus persicae (aphids)) | mortality at 500 ppm [8] | pest or weed control at 500 ppm [10]
< 50%: mortality at 500 ppm [4] | mortality at 500 ppm [5] | mortality at 500 ppm [6] | mortality at 250 µg/mL [7] | mortality at 500 ppm [9]

FC(F)C(CCCc1cccc(Oc2ccccc2)c1)c1ccc(OC(F)(F)F)cc1 (racemic) [Compound 83, 1,1-Difluoro-2-(4-trifluoromethoxyphenyl)-5-(3-phenoxyphenyl)pentane]
80 to 100%: mortality at 500 ppm [1] | mortality at 500 ppm [2] | mortality at 500 ppm [3] | mortality at 500 ppm [4] | mortality at 500 ppm (Myzus persicae (aphids)) | mortality at 500 ppm [5] | mortality at 500 ppm [6] | mortality at 500 ppm [8] | mortality at 500 ppm [9] | pest or weed control at 500 ppm [10]

CCOc1ccc(C(CCCc2ccc(F)c(Cc3ccccc3)c2)C(F)(F)F)cc1 (racemic) [Compound 106, 1,1,1-Trifluoro-2-(4-ethoxyphenyl)-5-(3-benzyl-4-fluorophenyl)pentane]
80 to 100%: mortality at 500 ppm [1] | mortality at 500 ppm [2] | mortality at 500 ppm [3] | mortality at 500 ppm [4] | mortality at 500 ppm (Myzus persicae (aphids)) | mortality at 500 ppm [5] | mortality at 500 ppm [6] | mortality at 500 ppm [8] | mortality at 500 ppm [9] | pest or weed control at 500 ppm [10]

FC(F)(F)C(CCCc1cccc(Oc2ccccc2)c1)c1ccc2c(c1)OCO2 (stereo not shown) [Compound 40, 1,1,1-Trifluoro-2-(3,4-methylenedioxy)phenyl-5-(3-phenoxyphenyl)pentane]
< 50%: mortality at 500 ppm [3] | mortality at 500 ppm [4] | mortality at 500 ppm [6]
50 to 79%: mortality at 500 ppm [9]
80 to 100%: mortality at 500 ppm [1] | mortality at 500 ppm [2] | mortality at 500 ppm (Myzus persicae (aphids)) | mortality at 500 ppm [5] | mortality at 500 ppm [8] | pest or weed control at 500 ppm [10]

FC(F)(F)C(=CCCc1cccc(Oc2ccccc2)c1)c1ccc2c(c1)OCO2 [Compound 41, 1,1,1-Trifluoro-2-(3,4-methylenedioxyphenyl)-5-(3-phenoxyphenyl)pent-2-ene]
80 to 100%: mortality at 500 ppm [2] | mortality at 500 ppm [5] | pest or weed control at 500 ppm [10]
50 to 79%: mortality at 500 ppm [1] | mortality at 500 ppm [8]
< 50%: mortality at 500 ppm [3] | mortality at 500 ppm [4] | mortality at 500 ppm (Myzus persicae (aphids)) | mortality at 500 ppm [6] | mortality at 500 ppm [9]

CCOc1ccc(C(CCCc2cccc(Oc3ccccc3)n2)C(F)(F)F)cc1 (stereo not shown) [Compound 98]
< 50%: mortality at 500 ppm [3] | mortality at 500 ppm [6]
80 to 100%: mortality at 500 ppm [1] | mortality at 500 ppm [2] | mortality at 500 ppm [4] | mortality at 500 ppm (Myzus persicae (aphids)) | mortality at 500 ppm [5] | mortality at 500 ppm [8] | mortality at 500 ppm [9] | pest or weed control at 500 ppm [10]

Fc1ccc(C=CC=C(c2ccc(OC(F)(F)F)cc2)C(F)(F)F)cc1Cc1ccccc1 [Compound 105, 1,1,1-Trifluoro-2-(4-trifluoromethoxyphenyl)-5-(4-fluoro-3-benzylphenyl)penta-2,4-diene]
80 to 100%: mortality at 500 ppm [3] | mortality at 500 ppm [4] | mortality at 500 ppm (Myzus persicae (aphids)) | mortality at 500 ppm [5] | mortality at 500 ppm [6] | mortality at 500 ppm [8] | mortality at 500 ppm [9]
< 50%: mortality at 500 ppm [1] | mortality at 500 ppm [2] | pest or weed control at 500 ppm [10]

CCOc1ccc(C(=CC=Cc2ccc(F)c(Cc3ccccc3)c2)C(F)(F)F)cc1 [Compound 107, 1,1,1-Trifluoro-2-(4-ethoxyphenyl)-5-(4-fluoro-3-benzylphenyl)penta-2,4-diene]
80 to 100%: mortality at 500 ppm (Myzus persicae (aphids)) | mortality at 500 ppm [5] | mortality at 500 ppm [8]
50 to 79%: mortality at 500 ppm [3]
< 50%: mortality at 500 ppm [1] | mortality at 500 ppm [2] | mortality at 500 ppm [4] | mortality at 500 ppm [6] | mortality at 500 ppm [9] | pest or weed control at 500 ppm [10]

Fc1ccc(CCCC(c2ccc(OC(F)(F)F)cc2)C(F)(F)F)cc1Cc1ccccc1 (stereo not shown) [Compound 108]
< 50%: mortality at 500 ppm [5]
80 to 100%: mortality at 500 ppm [1] | mortality at 500 ppm [2] | mortality at 500 ppm [3] | mortality at 500 ppm [4] | mortality at 500 ppm (Myzus persicae (aphids)) | mortality at 500 ppm [6] | mortality at 500 ppm [8] | mortality at 500 ppm [9] | pest or weed control at 500 ppm [10]
